The values below are quoted from earlier work in patent publication US9775802B2, “Method for preparing suspensions of low-solubility materials” (Bausch & Lomb Incorporated, priority 2009, dated 2017).

Structures can show the parent of a compound that is named as a salt. Where two headings read alike, the source gives them in different places.

For the data set the following is noted: for solubility in water, estimated: 'estimated to be'.

For `CC[C@H]1OC(=O)[C@H](C)[C@@H](O[C@H]2C[C@@](C)(OC)[C@@H](O)[C@H](C)O2)[C@H](C)[C@@H](O[C@@H]2O[C@H](C)C[C@H](N(C)C)[C@H]2O)[C@](C)(O)C[C@@H](C)CN(C)[C@H](C)[C@@H](O)[C@]1(C)O` [azithromycin dihydrate], for the setting “37° C.”, the solubility in water entry is “about 39 mg/mL”.
Consider `CC[C@H]1OC(=O)[C@H](C)[C@@H](O[C@H]2C[C@@](C)(OC)[C@@H](O)[C@H](C)O2)[C@H](C)[C@@H](O[C@@H]2O[C@H](C)C[C@H](N(C)C)[C@H]2O)[C@](C)(O)C[C@@H](C)CN(C)[C@H](C)[C@@H](O)[C@]1(C)O` [azithromycin], for which the solubility in water entry (temperature not stated) is “about 0.5 mg/mL”.
With `C[C@@H]1C[C@H]2[C@@H]3CCC4=CC(=O)C=C[C@]4(C)[C@@]3(F)[C@@H](O)C[C@]2(C)[C@@]1(O)C(=O)COP(=O)(O)O` [dexamethasone phosphate disodium salt], the “solubility in water (in words)” value is “soluble in water”.
In the case of `C[C@@H]1C[C@H]2[C@@H]3CCC4=CC(=O)C=C[C@]4(C)[C@@]3(F)[C@@H](O)C[C@]2(C)[C@@]1(O)C(=O)CO` [dexamethasone], the solubility in water entry (25° C.) is given as “about 0.1 mg/mL”.
On to `O=C(O)Cc1ccccc1Nc1c(Cl)cccc1Cl` [diclofenac sodium salt], for which, for the setting “temperature not stated”, the solubility in water entry was “about 50 mg/mL”.
Regarding `O=C(O)Cc1ccccc1Nc1c(Cl)cccc1Cl` [diclofenac], the “solubility in water, estimated” value was “about 0.002 mg/mL”.
With `COc1c(N2C[C@@H]3CCCN[C@@H]3C2)c(F)cc2c(=O)c(C(=O)O)cn(C3CC3)c12` [moxifloxacin], the “solubility in water, estimated” value is “about 0.17 mg/mL”.
